# Measured values from article PMC9186362, “Design and biological evaluation of substituted 5,7-dihydro-6H-indolo[2,3-c]quinolin-6-one as novel selective Haspin inhibitors” (Journal of Enzyme Inhibition and Medicinal Chemistry, 2022).
# Tests used:
# Experiment in all cases: SelectScreen ZLYTE
# Format in all cases: biochemical
# [1] = target: MINK1 (Homo sapiens, UniProt Q8N4C8); conditions: ATP Km, read-out: Percentage of inhibition
# In short: (§1)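 In a large-scale selectivity screen, each kinase was exposed to the inhibitor at 1 μM, and the read-out was expressed as percentage inhibition.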
# [2] = target: T1, STK25 (YSK1) (Homo sapiens, UniProt O00506); conditions: ATP Km, read-out: Percentage of inhibition
# T1 construct: purchased Life Technologies (SelectScreen Whole Panel service)
# In short: as §1
# [3] = target: T2, HIPK3 (YAK1) (Homo sapiens, UniProt Q9H422); conditions: ATP Km, read-out: Percentage of inhibition
# T2 construct: purchased Life Technologies
# In short: as §1
# [4] = target: T3, PRKG1 (Homo sapiens, UniProt Q13976); conditions: ATP Km, read-out: Percentage of inhibition
# T3 construct: purchased Life Technologies (SelectScreen Whole Panel service)
# In short: as §1
# [5] = target: T4, ROCK2 (Homo sapiens, UniProt O75116); conditions: ATP Km, read-out: Percentage of inhibition
# T4 construct: purchased Life Technologies
# In short: as §1
# [6] = target: PAK4 (Homo sapiens, UniProt O96013); conditions: ATP Km, read-out: Percentage of inhibition
# In short: as §1
# [7] = target: MAPK14 (p38 alpha) Direct (Homo sapiens, UniProt Q16539); conditions: ATP Km, read-out: Percentage of inhibition
# In short: as §1
# [8] = target: BMX (Homo sapiens, UniProt P51813); conditions: ATP Km, read-out: Percentage of inhibition
# In short: as §1
# [9] = target: MAP3K9 (MLK1) (Homo sapiens, UniProt P80192); conditions: ATP Km, read-out: Percentage of inhibition
# In short: as §1
# [10] = target: T5, CDK5/p25 (Homo sapiens, UniProt Q00535); conditions: ATP Km, read-out: Percentage of inhibition
# T5 construct: purchased Life Technologies
# In short: as §1
# [11] = target: T6, HIPK2 (Homo sapiens, UniProt Q9H2X6); conditions: ATP Km, read-out: Percentage of inhibition
# T6 construct: purchased Life Technologies (SelectScreen service)
# In short: as §1
# [12] = target: T7, FGR (Homo sapiens, UniProt P09769); conditions: ATP Km, read-out: Percentage of inhibition
# T7 construct: purchased Life Technologies (SelectScreen service)
# In short: as §1
# [13] = target: T8, PRKCB1 (PKC beta I) (Homo sapiens, UniProt P05771); conditions: ATP Km, read-out: Percentage of inhibition
# T8 construct: purchased Life Technologies (SelectScreen)
# In short: as §1
# [14] = target: T9, CSNK1G3 (CK1 gamma 3) (Homo sapiens, UniProt Q9Y6M4); conditions: ATP Km, read-out: Percentage of inhibition
# T9 construct: purchased Life Technologies
# In short: as §1
# [15] = target: T10, AKT3 (PKB gamma) (Homo sapiens, UniProt Q9Y243); conditions: ATP Km, read-out: Percentage of inhibition
# T10 construct: purchased Life Technologies
# In short: as §1
# [16] = target: T11, ITK (Homo sapiens, UniProt Q08881); conditions: ATP Km, read-out: Percentage of inhibition
# T11 construct: purchased Life Technologies (SelectScreen Whole Panel)
# In short: as §1
# [17] = target: T12, GRK6 (Homo sapiens, UniProt P43250); conditions: ATP Km, read-out: Percentage of inhibition
# T12 construct: purchased Life Technologies
# In short: as §1
# [18] = target: T13, BRSK1 (SAD1) (Homo sapiens, UniProt Q8TDC3); conditions: ATP Km, read-out: Percentage of inhibition
# T13 construct: purchased Life Technologies (SelectScreen Whole Panel service)
# In short: as §1
# [19] = target: T14, BRAF V599E (Homo sapiens, UniProt P15056, V600E); conditions: ATP 100 µM, read-out: Percentage of inhibition
# T14 construct: purchased Life Technologies
# In short: as §1
# [20] = target: LCK (Homo sapiens, UniProt P06239); conditions: ATP Km, read-out: Percentage of inhibition
# In short: as §1
# [21] = target: T15, ALK (Homo sapiens, UniProt Q9UM73); conditions: ATP Km, read-out: Percentage of inhibition
# T15 construct: purchased Life Technologies (SelectScreen service)
# In short: as §1
# [22] = target: SRPK1 (Homo sapiens, UniProt Q96SB4); conditions: ATP Km, read-out: Percentage of inhibition
# In short: as §1
# [23] = target: T16, CSNK1A1 (CK1 alpha 1) (Homo sapiens, UniProt P48729); conditions: ATP Km, read-out: Percentage of inhibition
# T16 construct: purchased Life Technologies (SelectScreen Whole Panel)
# In short: as §1
# [24] = target: DCAMKL2 (DCK2) (Homo sapiens, UniProt Q8N568); conditions: ATP Km, read-out: Percentage of inhibition
# In short: as §1
# [25] = target: PDGFRA T674I (Homo sapiens, UniProt P16234, T674I); conditions: ATP Km, read-out: Percentage of inhibition
# In short: as §1
# [26] = target: EGFR (ErbB1) T790M C797S L858R (Homo sapiens, UniProt P00533, C797S/L858R/T790M); conditions: ATP Km, read-out: Percentage of inhibition
# In short: as §1
# [27] = target: T17, CDC42 BPG (MRCKG) (Homo sapiens, UniProt Q6DT37); conditions: ATP Km, read-out: Percentage of inhibition
# T17 construct: purchased Life Technologies (SelectScreen Whole Panel service)
# In short: as §1
# [28] = target: T18, JAK2 JH1 JH2 (Homo sapiens, UniProt O60674); conditions: ATP Km, read-out: Percentage of inhibition
# T18 construct: JAK2 JH1 JH2; purchased Life Technologies
# In short: as §1
# [29] = target: T19, FGFR3 K650E (Homo sapiens, UniProt P22607, K650E); conditions: ATP Km, read-out: Percentage of inhibition
# T19 construct: purchased Life Technologies (SelectScreen Whole Panel service)
# In short: as §1
# [30] = target: T20, PDK1 Direct (Homo sapiens, UniProt O15530); conditions: ATP Km, read-out: Percentage of inhibition
# T20 construct: purchased Life Technologies (SelectScreen Whole Panel service)
# In short: as §1
# [31] = target: T21, IKBKE (IKK epsilon) (Homo sapiens, UniProt Q14164); conditions: ATP Km, read-out: Percentage of inhibition
# T21 construct: purchased Life Technologies (SelectScreen Whole Panel service)
# In short: as §1
# [32] = target: T22, PDGFRB (PDGFR beta) (Homo sapiens, UniProt P09619); conditions: ATP Km, read-out: Percentage of inhibition
# T22 construct: purchased Life Technologies (SelectScreen service)
# In short: as §1
# [33] = target: T23, MAPK11 (p38 beta) (Homo sapiens, UniProt Q15759); conditions: ATP Km, read-out: Percentage of inhibition
# T23 construct: purchased Life Technologies (SelectScreen)
# In short: as §1
# [34] = target: PRKCH (PKC eta) (Homo sapiens, UniProt P24723); conditions: ATP Km, read-out: Percentage of inhibition
# In short: as §1
# [35] = target: T24, MAP4K5 (KHS1) (Homo sapiens, UniProt Q9Y4K4); conditions: ATP Km, read-out: Percentage of inhibition
# T24 construct: purchased Life Technologies (SelectScreen service)
# In short: as §1
# [36] = target: T25, EPHA5 (Homo sapiens, UniProt P54756); conditions: ATP Km, read-out: Percentage of inhibition
# T25 construct: purchased Life Technologies (SelectScreen Whole Panel service)
# In short: as §1
# [37] = target: T26, MAPK9 (JNK2) (Homo sapiens, UniProt P45984); conditions: ATP 100 µM, read-out: Percentage of inhibition
# T26 construct: purchased Life Technologies (SelectScreen service)
# In short: as §1
# [38] = target: T27, MAPK10 (JNK3) (Homo sapiens, UniProt P53779); conditions: ATP 100 µM, read-out: Percentage of inhibition
# T27 construct: purchased Life Technologies
# In short: as §1
# T25 sequence (P54756 25-1037): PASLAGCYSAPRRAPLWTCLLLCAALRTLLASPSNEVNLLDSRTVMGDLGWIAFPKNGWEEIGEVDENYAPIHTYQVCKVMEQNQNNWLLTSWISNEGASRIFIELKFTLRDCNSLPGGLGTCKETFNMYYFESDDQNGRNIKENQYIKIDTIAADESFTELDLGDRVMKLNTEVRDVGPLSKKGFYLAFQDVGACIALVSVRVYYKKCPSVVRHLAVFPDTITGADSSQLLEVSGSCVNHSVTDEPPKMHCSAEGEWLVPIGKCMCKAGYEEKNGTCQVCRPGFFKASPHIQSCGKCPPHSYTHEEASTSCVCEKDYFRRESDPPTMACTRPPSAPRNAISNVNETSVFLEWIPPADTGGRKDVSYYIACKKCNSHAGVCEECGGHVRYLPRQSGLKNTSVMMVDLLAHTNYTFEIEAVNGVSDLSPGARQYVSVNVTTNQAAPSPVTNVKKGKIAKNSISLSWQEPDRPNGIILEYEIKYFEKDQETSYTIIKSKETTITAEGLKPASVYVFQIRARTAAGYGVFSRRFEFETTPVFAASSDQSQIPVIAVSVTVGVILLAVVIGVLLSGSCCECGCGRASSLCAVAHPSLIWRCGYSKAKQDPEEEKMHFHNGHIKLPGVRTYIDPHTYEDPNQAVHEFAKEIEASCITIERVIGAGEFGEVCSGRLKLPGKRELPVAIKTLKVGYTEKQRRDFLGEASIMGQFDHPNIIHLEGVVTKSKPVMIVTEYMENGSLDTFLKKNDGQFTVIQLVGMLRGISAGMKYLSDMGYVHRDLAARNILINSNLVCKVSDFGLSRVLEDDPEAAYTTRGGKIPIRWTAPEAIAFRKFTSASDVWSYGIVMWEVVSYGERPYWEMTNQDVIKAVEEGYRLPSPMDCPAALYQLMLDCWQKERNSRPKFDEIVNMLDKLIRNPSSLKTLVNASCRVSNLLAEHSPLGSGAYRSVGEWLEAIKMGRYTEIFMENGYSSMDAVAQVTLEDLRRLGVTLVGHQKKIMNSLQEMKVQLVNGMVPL
# T2 sequence (Q9H422 whole entry): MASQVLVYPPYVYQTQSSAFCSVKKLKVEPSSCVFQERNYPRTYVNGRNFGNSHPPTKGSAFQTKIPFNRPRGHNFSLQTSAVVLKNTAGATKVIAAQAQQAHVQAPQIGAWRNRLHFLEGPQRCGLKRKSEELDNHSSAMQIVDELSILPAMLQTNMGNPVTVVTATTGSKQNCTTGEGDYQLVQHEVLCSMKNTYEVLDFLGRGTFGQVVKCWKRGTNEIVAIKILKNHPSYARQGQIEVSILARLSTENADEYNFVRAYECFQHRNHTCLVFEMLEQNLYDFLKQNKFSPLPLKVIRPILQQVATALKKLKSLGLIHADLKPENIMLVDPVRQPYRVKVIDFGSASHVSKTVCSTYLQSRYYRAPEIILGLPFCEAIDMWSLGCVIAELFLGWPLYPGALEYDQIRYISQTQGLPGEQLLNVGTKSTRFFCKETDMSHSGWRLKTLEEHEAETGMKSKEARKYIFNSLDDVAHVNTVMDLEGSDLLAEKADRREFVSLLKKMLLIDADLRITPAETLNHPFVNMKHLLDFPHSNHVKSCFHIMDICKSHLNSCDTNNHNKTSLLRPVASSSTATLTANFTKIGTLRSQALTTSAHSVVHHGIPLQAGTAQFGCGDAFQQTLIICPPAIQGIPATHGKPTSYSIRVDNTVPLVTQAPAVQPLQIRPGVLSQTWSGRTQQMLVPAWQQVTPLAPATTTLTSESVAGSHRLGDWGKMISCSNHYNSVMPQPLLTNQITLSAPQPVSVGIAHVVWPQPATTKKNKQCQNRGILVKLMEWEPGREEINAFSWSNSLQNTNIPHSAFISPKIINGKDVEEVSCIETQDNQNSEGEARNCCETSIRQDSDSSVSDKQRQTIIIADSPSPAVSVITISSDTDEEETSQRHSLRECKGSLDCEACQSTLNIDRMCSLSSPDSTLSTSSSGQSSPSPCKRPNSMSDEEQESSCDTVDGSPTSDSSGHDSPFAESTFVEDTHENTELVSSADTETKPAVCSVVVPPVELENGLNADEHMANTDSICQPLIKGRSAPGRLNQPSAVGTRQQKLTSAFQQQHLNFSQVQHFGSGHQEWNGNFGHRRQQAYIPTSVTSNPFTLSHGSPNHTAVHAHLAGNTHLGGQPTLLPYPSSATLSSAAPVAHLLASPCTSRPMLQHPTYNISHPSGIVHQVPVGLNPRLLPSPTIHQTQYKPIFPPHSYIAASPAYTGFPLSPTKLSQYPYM
# Sequence of SRPK1 (Q96SB4 whole entry): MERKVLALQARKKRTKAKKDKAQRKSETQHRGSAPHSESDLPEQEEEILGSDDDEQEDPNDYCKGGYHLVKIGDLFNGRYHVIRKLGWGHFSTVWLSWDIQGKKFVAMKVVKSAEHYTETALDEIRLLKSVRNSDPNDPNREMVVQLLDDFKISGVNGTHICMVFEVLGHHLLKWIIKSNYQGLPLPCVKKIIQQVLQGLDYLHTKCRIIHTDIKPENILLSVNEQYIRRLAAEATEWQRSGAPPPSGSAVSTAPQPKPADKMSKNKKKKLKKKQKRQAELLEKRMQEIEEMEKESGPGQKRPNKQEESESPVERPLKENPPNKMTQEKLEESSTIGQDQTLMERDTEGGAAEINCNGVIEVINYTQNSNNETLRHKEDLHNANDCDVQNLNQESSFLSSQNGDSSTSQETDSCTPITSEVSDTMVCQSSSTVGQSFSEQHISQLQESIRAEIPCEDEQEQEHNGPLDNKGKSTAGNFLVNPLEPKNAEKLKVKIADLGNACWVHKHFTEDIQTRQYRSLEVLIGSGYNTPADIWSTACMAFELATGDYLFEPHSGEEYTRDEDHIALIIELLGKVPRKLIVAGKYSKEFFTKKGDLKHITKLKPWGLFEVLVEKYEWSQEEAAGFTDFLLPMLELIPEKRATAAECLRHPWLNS
# T1 sequence (O00506 whole entry): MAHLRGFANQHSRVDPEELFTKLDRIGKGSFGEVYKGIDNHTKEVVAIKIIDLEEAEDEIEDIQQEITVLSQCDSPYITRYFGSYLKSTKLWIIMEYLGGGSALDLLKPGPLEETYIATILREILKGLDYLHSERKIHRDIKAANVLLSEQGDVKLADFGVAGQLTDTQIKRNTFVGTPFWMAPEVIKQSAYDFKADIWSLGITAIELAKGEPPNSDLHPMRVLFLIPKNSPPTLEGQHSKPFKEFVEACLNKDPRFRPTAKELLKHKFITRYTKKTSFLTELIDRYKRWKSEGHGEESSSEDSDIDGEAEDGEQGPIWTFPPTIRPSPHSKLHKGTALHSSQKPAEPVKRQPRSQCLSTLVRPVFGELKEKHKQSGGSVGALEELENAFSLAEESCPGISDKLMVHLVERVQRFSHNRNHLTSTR
# T15 sequence (Q9UM73 19-1620): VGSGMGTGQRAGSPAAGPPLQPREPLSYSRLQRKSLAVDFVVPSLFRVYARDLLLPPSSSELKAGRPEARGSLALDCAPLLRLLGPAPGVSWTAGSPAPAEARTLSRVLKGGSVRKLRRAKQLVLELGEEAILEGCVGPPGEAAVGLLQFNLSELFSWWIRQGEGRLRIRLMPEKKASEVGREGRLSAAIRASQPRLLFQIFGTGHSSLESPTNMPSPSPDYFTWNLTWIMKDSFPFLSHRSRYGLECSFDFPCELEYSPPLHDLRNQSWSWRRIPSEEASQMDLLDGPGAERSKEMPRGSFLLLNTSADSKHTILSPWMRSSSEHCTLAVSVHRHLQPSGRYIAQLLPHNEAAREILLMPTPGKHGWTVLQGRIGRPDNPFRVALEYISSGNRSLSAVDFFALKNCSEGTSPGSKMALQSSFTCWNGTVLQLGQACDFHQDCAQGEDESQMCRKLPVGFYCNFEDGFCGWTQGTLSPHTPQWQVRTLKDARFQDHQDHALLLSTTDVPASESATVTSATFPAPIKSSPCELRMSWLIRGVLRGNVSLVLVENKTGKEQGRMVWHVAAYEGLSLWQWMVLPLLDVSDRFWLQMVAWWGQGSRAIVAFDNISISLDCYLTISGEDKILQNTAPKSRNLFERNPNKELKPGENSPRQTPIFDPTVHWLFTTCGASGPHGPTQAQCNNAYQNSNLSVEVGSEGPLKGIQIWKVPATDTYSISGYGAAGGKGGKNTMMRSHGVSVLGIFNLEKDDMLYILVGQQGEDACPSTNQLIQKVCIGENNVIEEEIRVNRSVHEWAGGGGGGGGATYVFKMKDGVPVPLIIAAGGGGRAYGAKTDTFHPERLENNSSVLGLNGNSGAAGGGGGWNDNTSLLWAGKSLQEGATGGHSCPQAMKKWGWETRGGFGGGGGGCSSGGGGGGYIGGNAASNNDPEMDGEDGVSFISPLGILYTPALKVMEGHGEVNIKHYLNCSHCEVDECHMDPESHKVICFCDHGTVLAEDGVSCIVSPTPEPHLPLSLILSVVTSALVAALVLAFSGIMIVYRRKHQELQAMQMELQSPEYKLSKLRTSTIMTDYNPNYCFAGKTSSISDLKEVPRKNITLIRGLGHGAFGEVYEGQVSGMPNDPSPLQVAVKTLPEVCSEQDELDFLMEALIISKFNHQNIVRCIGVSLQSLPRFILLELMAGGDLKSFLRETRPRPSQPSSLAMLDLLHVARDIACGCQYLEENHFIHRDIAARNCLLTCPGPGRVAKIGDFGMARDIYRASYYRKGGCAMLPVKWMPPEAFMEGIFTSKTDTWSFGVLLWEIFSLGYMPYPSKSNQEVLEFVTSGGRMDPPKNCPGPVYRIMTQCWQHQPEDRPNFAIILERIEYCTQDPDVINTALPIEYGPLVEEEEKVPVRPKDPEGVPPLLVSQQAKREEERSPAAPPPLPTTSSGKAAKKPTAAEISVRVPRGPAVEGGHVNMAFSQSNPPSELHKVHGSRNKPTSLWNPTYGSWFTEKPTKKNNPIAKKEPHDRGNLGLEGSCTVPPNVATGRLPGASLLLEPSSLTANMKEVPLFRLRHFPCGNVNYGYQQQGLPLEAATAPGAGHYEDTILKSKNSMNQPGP
smiles,measurement,setting,value
"COc1ccc2[nH]c3c(=O)[nH]c4ccc(O)cc4c3c2c1 [Compound 55, 2-Hydroxy-10-methoxy-5,7-dihydro-6H-indolo[2,3-c]quinolin-6-one]",inhibition at 1 µM,[1],66%
same,inhibition at 1 µM,[2],19%
same,inhibition at 1 µM,[3],35%
same,inhibition at 1 µM,[4],11%
same,inhibition at 1 µM,[5],4%
same,inhibition at 1 µM,[6],15%
same,inhibition at 1 µM,[7],6%
same,inhibition at 1 µM,[8],14%
same,inhibition at 1 µM,[9],63%
same,inhibition at 1 µM,[10],33%
same,inhibition at 1 µM,[11],74%
same,inhibition at 1 µM,[12],81%
same,inhibition at 1 µM,[13],8%
same,inhibition at 1 µM,[14],28%
same,inhibition at 1 µM,[15],3%
same,inhibition at 1 µM,[16],49%
same,inhibition at 1 µM,[17],32%
same,inhibition at 1 µM,[18],45%
same,inhibition at 1 µM,[19],96%
same,inhibition at 1 µM,[20],67%
same,inhibition at 1 µM,[21],24%
same,inhibition at 1 µM,[22],7%
same,inhibition at 1 µM,[23],51%
same,inhibition at 1 µM,[24],6%
same,inhibition at 1 µM,[25],6%
same,inhibition at 1 µM,[26],13%
same,inhibition at 1 µM,[27],12%
same,inhibition at 1 µM,[28],33%
same,inhibition at 1 µM,[29],43%
same,inhibition at 1 µM,[30],17%
same,inhibition at 1 µM,[31],17%
same,inhibition at 1 µM,[32],23%
same,inhibition at 1 µM,[33],8%
same,inhibition at 1 µM,[34],15%
same,inhibition at 1 µM,[35],90%
same,inhibition at 1 µM,[36],18%
same,inhibition at 1 µM,[37],12%
same,inhibition at 1 µM,[38],15%
